± gives the standard deviation of the reports.
Structure (SMILES) | glass transition temperature [°C]
*c1ccc(Oc2ccc(C(=O)c3cccc(C(=O)c4ccc(Oc5ccc(-c6c7c(c(*)c8ccccc68)C(=O)N(c6ccc(F)cc6)C7=O)cc5)cc4)c3)cc2)cc1 (repeat unit) | 243.00
*CC(*)c1ccc(COCCCCO)cc1 (repeat unit) | 20.00
*C(=O)Nc1ccc(Oc2ccc(C(C)(C)c3ccc(Oc4ccc(NC(=O)c5ccc6c(c5)C(=O)N(c5ccc(-c7sc(-c8ccc(N9C(=O)c%10ccc(*)cc%10C9=O)cc8)c(-c8ccccc8)c7-c7ccccc7)cc5)C6=O)cc4)cc3)cc2)cc1 (repeat unit) | 287.00
*c1ccc(C(=O)c2ccc(-n3nc(-c4ccc(Oc5ccc(-c6nn(*)c(=O)c7ccccc67)cc5)cc4)c4ccccc4c3=O)cc2)cc1 (repeat unit) | 301.00
*CC(*)c1cc(C)c(C)cc1C (repeat unit) | 104.00
*CCCCCCCNC(=O)N* (repeat unit) | 62.00
*c1cc(C(c2ccc(OCCN(C)c3ccc(/C=C/C4=CC(=C(/C#N)S(C)(=O)=O)/CC(C)(C)C4)cc3)c(N3C(=O)c4ccc(Oc5ccc6c(c5)C(=O)N(*)C6=O)cc4C3=O)c2)(C(F)(F)F)C(F)(F)F)ccc1OCCN(C)c1ccc(/C=C/C2=CC(=C(/C#N)S(C)(=O)=O)/CC(C)(C)C2)cc1 (repeat unit) | 225.00
*Nc1cccc(NC(=O)CCCCC(*)=O)c1 (repeat unit) | 114.2
*CN1C(=O)c2ccc(C(c3ccc4c(c3)C(=O)N(Cc3nc5cc(-c6ccc7oc(*)nc7c6)ccc5o3)C4=O)(C(F)(F)F)C(F)(F)F)cc2C1=O (repeat unit) | 231.00
*CC(*)C(=O)OCCCSCC (repeat unit) | -76.00
*c1ccc(Oc2cc(C(C)(C)C)c(Oc3ccc(N4C(=O)c5ccc(-c6ccc7c(c6)C(=O)N(*)C7=O)cc5C4=O)cc3)cc2C(C)(C)C)cc1 (repeat unit) | 293.00
*CC(*)c1ccc([CH]([Sn]([CH3])([CH3])[CH3])[Sn]([CH3])([CH3])[CH3])cc1 (repeat unit) | 140.00
*Nc1ccc(Cc2ccc(NC(=O)c3cc(NC(=O)c4ccccc4)cc(C(*)=O)c3)cc2)cc1 (repeat unit) | 285.00
*Nc1ccc(-c2ccc(NC(=O)c3ccc(NC(=O)c4ccc([Si](C)(C)c5ccc(C(=O)Nc6ccc(C(*)=O)cc6)cc5)cc4)cc3)cc2)cc1 (repeat unit) | 320.00
*c1ccc(C(C)(C)c2ccc(C(C)(C)c3ccc(N4C(=O)c5ccc(Oc6cccc7c(Oc8ccc9c(c8)C(=O)N(*)C9=O)cccc67)cc5C4=O)cc3)cc2)cc1 (repeat unit) | 253.00
*C(=O)Nc1cccc(P(=O)(c2ccccc2)c2cccc(NC(=O)c3ccc4c(c3)C(=O)N(c3cccc(P(=O)(c5ccccc5)c5cccc(N6C(=O)c7ccc(*)cc7C6=O)c5)c3)C4=O)c2)c1 (repeat unit) | 206.00
*C(=O)Nc1cc(NC(=O)c2ccc3c(c2)C(=O)N(c2cc(-c4nc5ccccc5s4)cc(N4C(=O)c5ccc(*)cc5C4=O)c2)C3=O)cc(-c2nc3ccccc3[nH]2)c1 (repeat unit) | 368.00
*CC(O)CN(*)c1cc(C)c(/N=N/c2ccc(Cl)cc2)c(C)c1 (repeat unit) | 150.00
*CCOC(=O)c1ccc(O*)cc1 (repeat unit) | 84.00
*CC(*)n1c2ccccc2c2c3ccccc3ccc21 (repeat unit) | 291.50

Structure (SMILES) | glass transition temperature [°C]
*c1ccc(Oc2ccc(C(C)(C)c3ccc(Oc4ccc(-c5nnc(*)c6c(-c7ccc(F)cc7)c(-c7ccc(F)cc7)c(-c7ccc(F)cc7)c(-c7ccc(F)cc7)c56)cc4)cc3)cc2)cc1 (repeat unit) | 282.00
*OC(=O)OCC1OC(C)(C)OC1COC(=O)OC1COC2C(*)COC12 (repeat unit) | 95.50
*CC(C(C)C)C(COC(=O)c1ccc(C(=O)O*)cc1)C(C)C (repeat unit) | 65.00
*c1ccc(Oc2ccc(-c3cc(-c4ccccc4)c4cc(C5(c6ccc7nc(*)cc(-c8ccccc8)c7c6)c6ccccc6-c6ccccc65)ccc4n3)cc2)cc1 (repeat unit) | 315.00
*C1C=CC(*)CC1 (repeat unit) | 125.50
*CNC(=O)OCc1cocc1COC(=O)NCc1ccc(C(C)(C)c2ccc(*)o2)o1 (repeat unit) | 25.00
*Oc1ccc2ccc(Oc3ccc(/C(=N/c4ccc(/N=C(\c5ccccc5)c5ccc(*)cc5)cc4)c4ccccc4)cc3)cc2c1 (repeat unit) | 171.00
*CC(*)OC (repeat unit) [Poly(methyl vinyl ether)] | -26.97 ± 3.8
*CC(*)P(=O)(c1ccccc1)c1ccccc1 (repeat unit) | 127.50
*c1ccc2c(c1)C(=O)N(C1CC(C)(C)CC(C)(CN3C(=O)c4ccc(C(*)(C(F)(F)F)C(F)(F)F)cc4C3=O)C1)C2=O (repeat unit) | 278.00
*c1ccc2c(c1)C(=O)N(c1ccc(Cc3ccc(N4C(=O)c5ccc(C(C)(C)CCCCC(*)(C)C)cc5C4=O)cc3)cc1)C2=O (repeat unit) | 169.90
*CC(*)c1ccccc1Cl (repeat unit) [Poly(2-chlorostyrene)] | 118.92 ± 2.1
*Oc1ccc(S(=O)(=O)c2ccc(Oc3ccc(/C=C4\CCC/C(=C\c5ccc(Oc6ccc(S(=O)(=O)c7ccc(Oc8ccc(C(C)(C)c9ccc(*)cc9)cc8)cc7)cc6)cc5)C4=O)cc3)cc2)cc1 (repeat unit) | 194.00
*c1cccc(P(C)(=O)c2cccc(N3C(=O)c4ccc(NC(=O)OCCOc5c(Br)cc(C(C)(C)c6cc(Br)c(OCCOC(=O)Nc7ccc8c(c7)C(=O)N(*)C8=O)c(Br)c6)cc5Br)cc4C3=O)c2)c1 (repeat unit) | 191.00
*OC(=O)CCC(=O)OC1COC2C(*)COC12 (repeat unit) | 77.00
*Oc1ccc(NC(=O)c2cc(C(c3ccc(C(=O)O)c(C(=O)Nc4ccc(Oc5ccc(C(c6ccc(*)cc6)(C(F)(F)F)C(F)(F)F)cc5)cc4)c3)(C(F)(F)F)C(F)(F)F)ccc2C(=O)O)cc1 (repeat unit) | 260.00
*C(=O)Nc1ccc(-c2ccc(NC(=O)c3ccc4c(c3)C(=O)N(c3ccc(Oc5cccc6c(N7C(=O)c8ccc(*)cc8C7=O)cccc56)cc3)C4=O)cc2)cc1 (repeat unit) | 301.00
*C(=O)Oc1c(C)cc(C(c2cc(C)c(OC(=O)c3ccc4c(c3)C(=O)N(c3c(C)cc(-c5cc(C)c(N6C(=O)c7ccc(*)cc7C6=O)c(C)c5)cc3C)C4=O)c(C)c2)(C(F)(F)F)C(F)(F)F)cc1C (repeat unit) | 327.00
*CC(*)OC(=O)c1ccncc1 (repeat unit) | 98.50
*Nc1cccc(NC(=O)Cc2cc(CC(*)=O)c(C)cc2C)c1 (repeat unit) | 222.00

Second part, the compound after the results:

glass transition temperature [°C] | Structure (SMILES)
61.00 | *CCCCCCOC(=O)c1cc(OCCCCCCOc2ccc(/N=N/c3ccc(C#N)cc3)cc2)cc(C(=O)OCCCCCCN2C(=O)c3ccc(Oc4ccc5c(c4)C(=O)N(*)C5=O)cc3C2=O)c1 (repeat unit)
-18.00 | *CCCCCCNC(=O)CCCC(=O)O* (repeat unit)
55.00 | *CC(*)(CC(=O)OCc1ccccc1)C(=O)OCc1ccccc1 (repeat unit)
45.92 ± 0.1 | *CCCCCCNC(=O)CCCCCCCCCCC(=O)N* (repeat unit) [Poly(iminohexamethyleneiminododecanedioyl)]
159.00 | *Nc1cc([N+](=O)[O-])c(NC(=O)CCCCCCCCC(*)=O)cc1/C=C/c1ccc(N(C)C)cc1 (repeat unit)
129.00 | *Oc1cc(CCC)cc(OC(=O)c2cccc(C(*)=O)c2)c1 (repeat unit)
130.00 | *CC(O)COc1ccc(C(=O)c2ccc(O*)cc2)cc1 (repeat unit)
72.00 | *CC(*)(C)C(=O)Oc1ccc(C(=O)Oc2ccc(C(=O)c3ccccc3)cc2)cc1 (repeat unit)
42.00 | */C=C(/*)CCCOc1ccc(OC(=O)c2ccc(OCCCCCCCC)cc2)cc1 (repeat unit)
173.00 | *Oc1ccc(-c2ccc(Oc3ccc(C(=O)c4ccc(C(=O)c5ccc(*)cc5)cc4)cc3)cc2)cc1 (repeat unit)
40.00 | *CCOCCOCCOCCOCCOCCOCCOCCOCCOCCOC(=O)c1ccc(-c2ccc(-c3ccc(C(=O)O*)cc3)cc2)cc1 (repeat unit)
53.00 | *Oc1ccc(CC(NC(=O)CCc2ccc(OC(=O)CCC(*)=O)cc2)C(=O)OCCCCCC)cc1 (repeat unit)
155.00 | */C=C/c1ccc(/C=C/c2ccc3c(c2)Sc2cc(*)ccc2N3c2ccc(OCCCCCCCCCCCC)cc2)s1 (repeat unit)
16.00 | *CC(CCCC)C(CCCC)COC(=O)c1ccc(C(=O)O*)cc1 (repeat unit)
41.00 | *CCOCCOc1ccc(C(=O)OC(=O)c2ccc(O*)cc2)cc1 (repeat unit)
26.70 | *O[Si](*)(C)CCCCCCCCCCC(=O)Oc1ccc(C(=O)Oc2ccc(-c3ccc(OCC(C)CC)cc3)cc2)cc1 (repeat unit)
236.00 | *C(=O)c1ccc(Oc2ccc(Oc3ccc(C(=O)c4ccc5c(c4)C(=O)N(c4ccc(N6C(=O)c7ccc(*)cc7C6=O)cc4)C5=O)cc3)cc2)cc1 (repeat unit)
48.00 | *CC(*)C(=O)Oc1ccc(C(=O)Oc2ccc(OC(=O)c3ccc(OCCCCC)cc3)cc2)cc1 (repeat unit)
210.00 | *Oc1ccc(Oc2ccc(C(=O)c3cccc(NC(=O)c4ccc(C(=O)Nc5cccc(C(=O)c6ccc(*)cc6)c5)cc4)c3)cc2)cc1 (repeat unit)
353.00 | *c1ccc(Oc2ccc(-c3cnc4cc5nc(*)cnc5cc4n3)cc2)cc1 (repeat unit)
254.00 | *c1ccc2c(c1)C(=O)N(c1ccc(OCCOc3ccc(N4C(=O)c5ccc(C(*)(C(F)(F)F)C(F)(F)F)cc5C4=O)cc3)cc1)C2=O (repeat unit)
